Data published in patent US9133207B2, “Tetrandrine derivatives with substituted 5-carbon, preparation method and use thereof” (Hangzhou Bensheng Pharmaceutical Co., Ltd., priority 2011, dated 2015).
Values after ≈ are worked out from the molar mass of the structure shown.

Assays:
[1] = test system: RPMI8226 (multiple myeloma); assay: Multiple myeloma cell growth inhibition, MTT, 72 h (Example 6); type: cell-based, human; conditions: Homo sapiens, RPMI-8226; 72 h, MTT, RPMI8226
Method in brief: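 RPMI8226 cells (6000 per well) in RPMI 1640 with 10% FBS were exposed to a range of tetrandrine derivative concentrations for 72 h at 37 °C under 5% CO2. Viable cell concentration was then measured by MTT.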

[2] = test system: MG63 (osteosarcoma); assay: Solid tumor cell growth inhibition, MTT, 72 h (Example 7); type: cell-based, human; conditions: Homo sapiens; 72 h, MTT, MG-63
Method in brief: (§1)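 Cells (4000/well) were seeded in DMEM high glucose with 10% FBS and grown 24 h at 37 °C, 5% CO2, then exposed to tetrandrine derivatives at different concentrations for 72 h. Viable cells were measured by MTT, with viability expressed as % of untreated control (100%).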

[3] = test system: PANC-1 (pancreatic cancer); assay: as above; type: cell-based, human; conditions: Homo sapiens; 72 h, MTT, PANC-1
Method in brief: as §1

[4] = test system: PC-3 (prostate cancer); assay: as above; type: cell-based, human; conditions: Homo sapiens; 72 h, MTT, PC-3
Method in brief: as §1

[5] = test system: CaES-17 (esophageal cancer cell); assay: as above; type: cell-based, human; conditions: Homo sapiens, CaEs17; 72 h, MTT, CAES-17
Method in brief: as §1

[6] = test system: Hep-2 (laryngeal carcinoma); assay: as above; type: cell-based, human; conditions: Homo sapiens; 72 h, MTT, Hep 2
Method in brief: as §1

[7] = test system: Becap37 (human breast cancer cell); assay: as above; type: cell-based; conditions: Homo sapiens; 72 h, MTT, Becap-37
Method in brief: as §1

[8] = test system: RKO (human colon adenocarcinoma cell); assay: as above; type: cell-based; conditions: Homo sapiens; 72 h, MTT, RKO
Method in brief: as §1

[9] = test system: SK-OV-3 (ovarian cancer cell); assay: as above; type: cell-based; conditions: Homo sapiens
Method in brief: as §1

[10] = test system: U87 MG (malignant glioma cell); assay: as above; type: cell-based; conditions: Homo sapiens, U-87 MG
Method in brief: as §1

[11] = test system: Hela (human cervical cancer cell); assay: as above; type: cell-based; conditions: Homo sapiens; 72 h, MTT, Hela
Method in brief: as §1

[12] = test system: CNE (nasopharyngeal carcinoma cell); assay: as above; type: cell-based; conditions: Homo sapiens
Method in brief: as §1

[13] = test system: A549 (human lung cancer); assay: as above; type: cell-based; conditions: Homo sapiens; 72 h, MTT, A549
Method in brief: as §1

[14] = test system: MGC 803 (human gastric cancer cell); assay: as above; type: cell-based; conditions: Homo sapiens
Method in brief: as §1

[15] = test system: Huh7 (human liver cancer cell); assay: as above; type: cell-based; conditions: Homo sapiens; 72 h, MTT, Huh-7
Method in brief: as §1

[16] = test system: Jurkat (acute lymphoblastic leukemia, ALL); assay: Leukemia cell growth inhibition, MTT, 72 h (Example 5); type: cell-based, human; conditions: for IC50 / IC90: Homo sapiens, Jurkat, 72 h, MTT
Method in brief: (§2)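 Growth inhibition by tetrandrine derivatives, dosed at several concentrations, was assessed via MTT after a 72-hour culture at 37° C.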

[17] = test system: NB4 (acute promyelocytic leukemia, AML); assay: as above; type: cell-based, human; conditions: Homo sapiens; 72 h, MTT
Method in brief: as §2

[18] = test system: Kasumi-1 (acute myeloid leukemia M2 type, AML-M2); assay: as above; type: cell-based, human; conditions: Homo sapiens, Kasumi 1
Method in brief: as §2

[19] = test system: K562/adr (drug-resistant, chronic myeloid leukemia, CML); assay: as above; type: cell-based, human; conditions: Homo sapiens, K562/Adr; 72 h, MTT
Method in brief: as §2

[20] = test system: H9 (acute lymphoblastic leukemia, ALL); assay: as above; type: cell-based, human; conditions: Homo sapiens; 72 h, MTT
Method in brief: as §2

Q: How did the IC50 [1] turn out when `COc1ccc2cc1Oc1ccc(cc1)C[C@H]1c3cc(c(OC)cc3CCN1C)Oc1c(OC)c(OC)c(CN3CCCCC3)c3c1[C@H](C2)N(C)CC3` [BS-TE-355] was run?
A: Its IC50 is 0.04 µg/mL (≈ 0.0556 µM).

Q: What about the IC90 [1] of the same compound?
A: The IC90 was 3.08 µg/mL (≈ 4.28 µM).

Q: And the IC50 [2]?
A: Its IC50 is 0.77 µg/mL (≈ 1.07 µM).

Q: What about the IC90 [2] of the same compound?
A: Its IC90 is 1.27 µg/mL (≈ 1.76 µM).

Q: What about the IC50 [3] of the same compound?
A: The IC50 was 2.27 µg/mL (≈ 3.15 µM).

Q: And the IC90 [3]?
A: The IC90 was 8.22 µg/mL (≈ 11.4 µM).

Q: What about the IC50 [4] of the same compound?
A: Its IC50 is 1.83 µg/mL (≈ 2.54 µM).

Q: What about the IC90 [4] of the same compound?
A: Its IC90 is 3.65 µg/mL (≈ 5.07 µM).

Q: What about the IC50 [5] of the same compound?
A: The IC50 was 1.42 µg/mL (≈ 1.97 µM).

Q: What about the IC90 [5] of the same compound?
A: Its IC90 is 11 µg/mL (≈ 15.3 µM).

Q: What about the IC50 [6] of the same compound?
A: The IC50 was 3.22 µg/mL (≈ 4.47 µM).

Q: What about the IC90 [6] of the same compound?
A: The IC90 was 8.45 µg/mL (≈ 11.7 µM).

Q: What about the IC50 [7] of the same compound?
A: Its IC50 is 0.76 µg/mL (≈ 1.06 µM).

Q: And the IC90 [7]?
A: The IC90 was 2.69 µg/mL (≈ 3.74 µM).

Q: What about the IC50 [8] of the same compound?
A: The IC50 was 0.25 µg/mL (≈ 0.347 µM).

Q: What about the IC90 [8] of the same compound?
A: The IC90 was 1.18 µg/mL (≈ 1.64 µM).

Q: What about the IC50 [9] of the same compound?
A: The IC50 was 3.5 µg/mL (≈ 4.86 µM).

Q: And the IC90 [9]?
A: The IC90 was > 16 µg/mL.

Q: And the IC50 [10]?
A: The IC50 was 0.37 µg/mL (≈ 0.514 µM).

Q: What about the IC90 [10] of the same compound?
A: The IC90 was 1.16 µg/mL (≈ 1.61 µM).

Q: And the IC50 [11]?
A: The IC50 was 2 µg/mL (≈ 2.78 µM).

Q: What about the IC90 [11] of the same compound?
A: Its IC90 is 6.92 µg/mL (≈ 9.61 µM).

Q: What about the IC50 [12] of the same compound?
A: Its IC50 is 1.17 µg/mL (≈ 1.63 µM).

Q: What about the IC90 [12] of the same compound?
A: Its IC90 is 3.64 µg/mL (≈ 5.06 µM).

Q: What about the IC50 [13] of the same compound?
A: The IC50 was 3.4 µg/mL (≈ 4.72 µM).

Q: And the IC90 [13]?
A: Its IC90 is 14.9 µg/mL (≈ 20.7 µM).

Q: What about the IC50 [14] of the same compound?
A: The IC50 was 0.92 µg/mL (≈ 1.28 µM).

Q: What about the IC90 [14] of the same compound?
A: Its IC90 is 12 µg/mL (≈ 16.7 µM).

Q: What about the IC50 [15] of the same compound?
A: Its IC50 is 1.28 µg/mL (≈ 1.78 µM).

Q: What about the IC90 [15] of the same compound?
A: Its IC90 is 2.45 µg/mL (≈ 3.4 µM).

Q: What about the IC50 [16] of the same compound?
A: Its IC50 is 0.48 µg/mL (≈ 0.667 µM).

Q: What about the IC90 [16] of the same compound?
A: Its IC90 is 4.52 µg/mL (≈ 6.28 µM).

Q: And the “anti-Jurkat activity increase over tetrandrine” value ([16]; compared with tetrandrine)?
A: Its value is ~4 fold.

Q: And the IC50 [17]?
A: The IC50 was 0.4 µg/mL (≈ 0.556 µM).

Q: What about the IC90 [17] of the same compound?
A: The IC90 was 1.4 µg/mL (≈ 1.94 µM).

Q: And the IC50 [18]?
A: The IC50 was 0.46 µg/mL (≈ 0.639 µM).

Q: What about the IC90 [18] of the same compound?
A: The IC90 was 2.55 µg/mL (≈ 3.54 µM).

Q: And the IC50 [19]?
A: The IC50 was 0.44 µg/mL (≈ 0.611 µM).

Q: And the IC90 [19]?
A: Its IC90 is 8.5 µg/mL (≈ 11.8 µM).

Q: And the IC50 [20]?
A: The IC50 was 0.63 µg/mL (≈ 0.875 µM).

Q: What about the IC90 [20] of the same compound?
A: Its IC90 is 1.96 µg/mL (≈ 2.72 µM).

Q: For `COc1ccc2cc1Oc1ccc(cc1)C[C@H]1c3cc(c(OC)cc3CCN1C)Oc1c(OC)c(OC)c(CN3CCCN(C)CC3)c3c1[C@H](C2)N(C)CC3` [BS-TE-356], which IC50 [1] is on record?
A: Its IC50 is 0.11 µg/mL (≈ 0.147 µM).

Q: And the IC90 [1]?
A: Its IC90 is 2.43 µg/mL (≈ 3.24 µM).

Q: What about the IC50 [2] of the same compound?
A: The IC50 was 0.49 µg/mL (≈ 0.654 µM).

Q: And the IC90 [2]?
A: The IC90 was 0.62 µg/mL (≈ 0.828 µM).

Q: And the IC50 [3]?
A: Its IC50 is 1.62 µg/mL (≈ 2.16 µM).

Q: And the IC90 [3]?
A: The IC90 was 4.58 µg/mL (≈ 6.12 µM).

Q: And the IC50 [4]?
A: Its IC50 is 3.4 µg/mL (≈ 4.54 µM).

Q: And the IC90 [4]?
A: Its IC90 is 5 µg/mL (≈ 6.68 µM).

Q: What about the IC50 [5] of the same compound?
A: The IC50 was 1 µg/mL (≈ 1.34 µM).

Q: What about the IC90 [5] of the same compound?
A: The IC90 was 9.26 µg/mL (≈ 12.4 µM).

Q: What about the IC50 [6] of the same compound?
A: Its IC50 is 3.37 µg/mL (≈ 4.5 µM).

Q: What about the IC90 [6] of the same compound?
A: Its IC90 is 7.54 µg/mL (≈ 10.1 µM).

Q: And the IC50 [7]?
A: The IC50 was 1.63 µg/mL (≈ 2.18 µM).

Q: What about the IC90 [7] of the same compound?
A: Its IC90 is 3 µg/mL (≈ 4.01 µM).

Q: And the IC50 [8]?
A: The IC50 was 0.51 µg/mL (≈ 0.681 µM).

Q: And the IC90 [8]?
A: The IC90 was 0.91 µg/mL (≈ 1.22 µM).

Q: And the IC50 [9]?
A: The IC50 was 2.19 µg/mL (≈ 2.92 µM).

Q: And the IC90 [9]?
A: Its IC90 is 4 µg/mL (≈ 5.34 µM).

Q: And the IC50 [10]?
A: Its IC50 is 1.11 µg/mL (≈ 1.48 µM).

Q: What about the IC90 [10] of the same compound?
A: The IC90 was 2.02 µg/mL (≈ 2.7 µM).

Q: What about the IC50 [11] of the same compound?
A: The IC50 was 1.55 µg/mL (≈ 2.07 µM).

Q: What about the IC90 [11] of the same compound?
A: The IC90 was 5 µg/mL (≈ 6.68 µM).

Q: What about the IC50 [12] of the same compound?
A: The IC50 was 0.94 µg/mL (≈ 1.26 µM).

Q: And the IC90 [12]?
A: The IC90 was 2.59 µg/mL (≈ 3.46 µM).

Q: What about the IC50 [13] of the same compound?
A: The IC50 was 3.5 µg/mL (≈ 4.67 µM).

Q: And the IC90 [13]?
A: The IC90 was 10.5 µg/mL (≈ 14 µM).

Q: What about the IC50 [14] of the same compound?
A: The IC50 was 1.26 µg/mL (≈ 1.68 µM).

Q: What about the IC90 [14] of the same compound?
A: The IC90 was 1.88 µg/mL (≈ 2.51 µM).

Q: And the IC50 [15]?
A: Its IC50 is 1.3 µg/mL (≈ 1.74 µM).

Q: What about the IC90 [15] of the same compound?
A: The IC90 was 1.67 µg/mL (≈ 2.23 µM).

Q: What about the IC50 [16] of the same compound?
A: Its IC50 is 1.41 µg/mL (≈ 1.88 µM).

Q: What about the IC90 [16] of the same compound?
A: The IC90 was 5.41 µg/mL (≈ 7.22 µM).

Q: And the IC50 [17]?
A: The IC50 was 0.63 µg/mL (≈ 0.841 µM).

Q: What about the IC90 [17] of the same compound?
A: Its IC90 is 2.17 µg/mL (≈ 2.9 µM).

Q: What about the IC50 [18] of the same compound?
A: Its IC50 is 1.24 µg/mL (≈ 1.66 µM).

Q: And the IC90 [18]?
A: Its IC90 is 3.2 µg/mL (≈ 4.27 µM).

Q: What about the IC50 [19] of the same compound?
A: Its IC50 is 0.79 µg/mL (≈ 1.05 µM).

Q: And the IC90 [19]?
A: Its IC90 is 2.4 µg/mL (≈ 3.2 µM).

Q: What about the IC50 [20] of the same compound?
A: The IC50 was 1.54 µg/mL (≈ 2.06 µM).

Q: And the IC90 [20]?
A: Its IC90 is 2.21 µg/mL (≈ 2.95 µM).
